In brackets after ≈: the same amount, converted by molar mass.
How the values were obtained:
[1] = test system: Escherichia coli (E. coli) BAS849; assay: Antibacterial activity, microbroth dilution MIC (Table 1); type: cell-based; settings: microbroth dilution, super sensitive Gram-negative E. coli BAS849, read-out: MIC, BAS849
Excerpt: (§1) The antibacterial activity from a microbroth dilution method may be presented as the minimum inhibitory concentration (MIC in μg/mL). The MIC value is the lowest concentration of drug which prevents macroscopically visible growth under test conditions.
(§2) Antibacterial activity of test compounds against the super sensitive Gram-negative Escherichia coli (E. coli) BAS849 bacterium, the control Gram-negative E. coli 25922 strain and the Gram-positive Staphylococcus aureus (S. aureus) 29213 bacterium are shown in Table 1.

[2] = test system: Staphylococcus aureus (S. aureus) 29213; assay: as above; type: cell-based; settings: microbroth dilution, Gram-positive S. aureus 29213, read-out: MIC, 29213
Excerpt: as §1, §2

E. coli 25922 = assay: as above; type: cell-based, Escherichia coli; settings: Escherichia coli; microbroth dilution; control Gram-negative E. coli 25922 strain; read-out: MIC, 25922
Excerpt: as §1, §2

E. coli LZ3111 = assay: Antibacterial activity, MIC, quinolone resistant strain (Table 2); type: cell-based; settings: Escherichia coli, LZ3111, read-out: MIC LZ3111
Excerpt: as §1
Mutations in these regions are known to confer a high level resistance to the quinolone class of antibiotics.

CCc1cc(C(=O)O)c(=O)[nH]c1-c1ccc2ccn(C)c2c1 [Cpd 7, 5-ethyl-6-(1-methyl-1H-indol-6-yl)-2-oxo-1,2-dihydropyridine-3-carboxylic acid]
MIC [1]: 1 to 3.5 µg/mL (≈ 3.37 to 11.8 µM)
MIC [2]: 12.5 to 150 µg/mL (≈ 42.2 to 506 µM)
MIC (E. coli 25922): 12.5 to 150 µg/mL (≈ 42.2 to 506 µM)
MIC (E. coli LZ3111): 12.5 to 150 µg/mL (≈ 42.2 to 506 µM)

CCc1c(-c2ccc3nc(C)oc3c2)[nH]c(=O)c(C(=O)O)c1O [Cpd 12, 5-ethyl-4-hydroxy-6-(2-methylbenzo[d]oxazol-6-yl)-2-oxo-1,2-dihydropyridine-3-carboxylic acid]
MIC [1]: 1 to 3.5 µg/mL (≈ 3.18 to 11.1 µM)
MIC [2]: 12.5 to 150 µg/mL (≈ 39.8 to 477 µM)
MIC (E. coli 25922): 12.5 to 150 µg/mL (≈ 39.8 to 477 µM)
MIC (E. coli LZ3111): 12.5 to 150 µg/mL (≈ 39.8 to 477 µM)

CCc1cc(C(=O)O)c(=O)[nH]c1-c1cn(C)c2ccccc12 [Cpd 13, 5-ethyl-6-(1-methyl-1H-indol-3-yl)-2-oxo-1,2-dihydropyridine-3-carboxylic acid]
MIC [1]: 3.5 to 12.5 µg/mL (≈ 11.8 to 42.2 µM)
MIC [2]: 12.5 to 150 µg/mL (≈ 42.2 to 506 µM)
MIC (E. coli 25922): 12.5 to 150 µg/mL (≈ 42.2 to 506 µM)

CCc1cc(C(=O)O)c(=O)[nH]c1-c1ccc2nc(-c3ccccc3)oc2c1 [Cpd 15, 5-ethyl-2-oxo-6-(2-phenylbenzo[d]oxazol-6-yl)-1,2-dihydropyridine-3-carboxylic acid]
MIC [1]: 1 to 3.5 µg/mL (≈ 2.77 to 9.71 µM)
MIC [2]: 12.5 to 150 µg/mL (≈ 34.7 to 416 µM)
MIC (E. coli 25922): 12.5 to 150 µg/mL (≈ 34.7 to 416 µM)

CCc1c(-c2ccc3nc(-c4ccccc4)oc3c2)[nH]c(=O)c(C(=O)O)c1O [Cpd 16, 5-ethyl-4-hydroxy-2-oxo-6-(2-phenylbenzo[d]oxazol-6-yl)-1,2-dihydropyridine-3-carboxylic acid]
MIC [1]: 3.5 to 12.5 µg/mL (≈ 9.3 to 33.2 µM)
MIC [2]: 1 to 3.5 µg/mL (≈ 2.66 to 9.3 µM)
MIC (E. coli 25922): 12.5 to 150 µg/mL (≈ 33.2 to 399 µM)

CCc1cc(C(=O)O)c(=O)[nH]c1-c1ccc2nc(N(C)C)oc2c1 [Cpd 17, 6-(2-(dimethylamino)benzo[d]oxazol-6-yl)-5-ethyl-2-oxo-1,2-dihydropyridine-3-carboxylic acid]
MIC [1]: 3.5 to 12.5 µg/mL (≈ 10.7 to 38.2 µM)
MIC [2]: 1 to 3.5 µg/mL (≈ 3.05 to 10.7 µM)
MIC (E. coli 25922): 12.5 to 150 µg/mL (≈ 38.2 to 458 µM)

CCc1c(-c2ccc3nc(N(C)C)oc3c2)[nH]c(=O)c(C(=O)O)c1O [Cpd 18, 6-(2-(dimethylamino)benzo[d]oxazol-6-yl)-5-ethyl-4-hydroxy-2-oxo-1,2-dihydropyridine-3-carboxylic acid]
MIC [1]: 3.5 to 12.5 µg/mL (≈ 10.2 to 36.4 µM)
MIC [2]: 1 to 3.5 µg/mL (≈ 2.91 to 10.2 µM)
MIC (E. coli 25922): 12.5 to 150 µg/mL (≈ 36.4 to 437 µM)
MIC (E. coli LZ3111): 12.5 to 150 µg/mL (≈ 36.4 to 437 µM)

CCc1cc(C(=O)O)c(=O)[nH]c1-c1ccc2ncccc2c1 [Cpd 19, 5-ethyl-2-oxo-6-(quinolin-6-yl)-1,2-dihydropyridine-3-carboxylic acid]
MIC [1]: 12.5 to 150 µg/mL (≈ 42.5 to 510 µM)
MIC [2]: 12.5 to 150 µg/mL (≈ 42.5 to 510 µM)
MIC (E. coli 25922): 12.5 to 150 µg/mL (≈ 42.5 to 510 µM)

CCc1cc(C(=O)O)c(=O)[nH]c1-c1ccc2c(ccn2CCO)c1 [Cpd 23, 5-ethyl-6-(1-(2-hydroxyethyl)-1H-indol-5-yl)-2-oxo-1,2-dihydropyridine-3-carboxylic acid]
MIC [1]: < 1 µg/mL
MIC [2]: 12.5 to 150 µg/mL (≈ 38.3 to 460 µM)
MIC (E. coli 25922): 3.5 to 12.5 µg/mL (≈ 10.7 to 38.3 µM)
MIC (E. coli LZ3111): 12.5 to 150 µg/mL (≈ 38.3 to 460 µM)

CCc1cc(C(=O)O)c(=O)[nH]c1-c1ccc2c(ccn2CC2OCCO2)c1 [Cpd 25, 6-(1-((1,3-dioxolan-2-yl)methyl)-1H-indol-5-yl)-5-ethyl-2-oxo-1,2-dihydropyridine-3-carboxylic acid]
MIC [1]: < 1 µg/mL
MIC [2]: 12.5 to 150 µg/mL (≈ 33.9 to 407 µM)
MIC (E. coli 25922): 12.5 to 150 µg/mL (≈ 33.9 to 407 µM)

CCc1c(-c2ccc3c(ccn3CC3OCCO3)c2)[nH]c(=O)c(C(=O)O)c1O [Cpd 26, 6-(1-((1,3-dioxolan-2-yl)methyl)-1H-indol-5-yl)-5-ethyl-4-hydroxy-2-oxo-1,2-dihydropyridine-3-carboxylic acid]
MIC [1]: < 1 µg/mL
MIC [2]: 3.5 to 12.5 µg/mL (≈ 9.11 to 32.5 µM)
MIC (E. coli 25922): 12.5 to 150 µg/mL (≈ 32.5 to 390 µM)

CCc1cc(C(=O)O)c(=O)[nH]c1-c1ccc2c(c1)c1c(n2C)CCCC1 [Cpd 27, 5-ethyl-6-(9-methyl-2,3,4,9-tetrahydro-1H-carbazol-6-yl)-2-oxo-1,2-dihydropyridine-3-carboxylic acid]
MIC [1]: < 1 µg/mL
MIC [2]: 3.5 to 12.5 µg/mL (≈ 9.99 to 35.7 µM)
MIC (E. coli 25922): 12.5 to 150 µg/mL (≈ 35.7 to 428 µM)

CCc1c(-c2ccc3c(c2)c2c(n3C)CCCC2)[nH]c(=O)c(C(=O)O)c1O [Cpd 28, 5-ethyl-4-hydroxy-6-(9-methyl-2,3,4,9-tetrahydro-1H-carbazol-6-yl)-2-oxo-1,2-dihydropyridine-3-carboxylic acid]
MIC [1]: 12.5 to 150 µg/mL (≈ 34.1 to 409 µM)
MIC [2]: < 1 µg/mL
MIC (E. coli 25922): 12.5 to 150 µg/mL (≈ 34.1 to 409 µM)
MIC (E. coli LZ3111): 12.5 to 150 µg/mL (≈ 34.1 to 409 µM)

CCc1cc(C(=O)O)c(=O)[nH]c1-c1ccc2c(c1)c(C)c(C)n2C [Cpd 29, 5-ethyl-2-oxo-6-(1,2,3-trimethyl-1H-indol-5-yl)-1,2-dihydropyridine-3-carboxylic acid]
MIC [1]: < 1 µg/mL
MIC [2]: 12.5 to 150 µg/mL (≈ 38.5 to 462 µM)
MIC (E. coli 25922): 12.5 to 150 µg/mL (≈ 38.5 to 462 µM)

Source: patent US9409905B2, “Antibacterial compounds and methods for use” (PTC THERAPEUTICS, INC., priority 2011, dated 2016)
